Measured values taken from patent US11773183B2, “MUC16 monoclonal antibody and uses thereof” (QUEST PHARMATECH INC., priority 2018, dated 2023).

Test system: T3M4 wildtype (WT) cells
Test: Live/Dead cell cytotoxicity assay, T3M4 wildtype cells
Assay type: cell-based, human
Details: 24 h
Experimental: Materials and Methods. T3M4 wildtype (WT) and COSMC deleted (SimpleCells, SC) were treated with equal amounts of mAR 9.6 (5 μg/ml) and POCmAb (5 μg/ml) or with isotype matched (either mouse or human) control IgG antibody for 24 h. For the comparison of effect of antibodies in inducing cell death, T3M4 WT cells were treated with Sapitinib (an ErbB receptor tyrosine kinase inhibitor, 5.4 μM) and LY294002 (PI3K/Akt inhibitor, 11.3 μM) alone or in combination with mAR9.6 (5 μg/ml) and POCmAb (5 μg/ml) for 24 h. The cells were washed well with cell-culture grade PBS. 20 μl ethidium homodimer-1 (EthD-1, 2 mM) was dissolved in 10 ml PBS. To this solution, 5 μl of calcein acetoxymethyl ester (calcein-AM, 4 mM) was added. 150 μl of this combined reagent was added to the cells grown on coverslip and incubated for 30-45 minutes. The numbers of live and dead cells were detected with Zeiss LSM 710™ confocal laser scanning microscope (Carl Zeiss, Inc., Thornwood, NY, USA) at Confocal Laser Scanning Fluorescence Microscope Core Facility, UNMC. The ratio of dead cells to total cells was calculated for quantitative comparisons. Unpaired Student's t-test was performed to calculate the statistical significance between the antibodies treated T3M4 WT and T3M4 SC cells (n=4) (p<0.05 considered statistically significant). Two way analysis of variance (ANOVA) was performed to calculate the statistical significance between the inhibitors and antibody treated T3M4 cells (n=4) (p<0.05 considered statistically significant).

[1] = inhibitor (Sapitinib 5.4 μM, LY294002 11.3 μM) with human IgG isotype control
[2] = inhibitor (Sapitinib 5.4 μM, LY294002 11.3 μM) with mouse IgG isotype control

Row | SMILES | cell death (ratio of dead cells to total cells) [1] | cell death (ratio of dead cells to total cells) [2]
1 | CNC(=O)CN1CCC(Oc2cc3c(Nc4cccc(Cl)c4F)ncnc3cc2OC)CC1 [Sapitinib] | about 17% | about 17%
2 | O=c1cc(N2CCOCC2)oc2c(-c3ccccc3)cccc12 [LY294002] | about 15% | about 15%
